By IC50 is commonly meant the concentration that inhibits the measured activity by half. A lower IC50 goes with higher potency. In general, MIC50 refers to the lowest concentration that inhibits either 50% of growth or 50% of the strains tested, depending on the study. In general, MIC90 refers to an inhibitory concentration at the 90% level, which refers to growth in some studies and to a panel of isolates in others. The inhibition is the drop in the measured response relative to a control, in per cent.

Experimental findings from ChEMBL document CHEMBL3044535, “Pharmacological profile of green tea and its polyphenols: a review” (Med Chem Res, 2012) are described below.

Assay [1] concerns the target Urease subunit alpha/Urease subunit beta (Helicobacter pylori (strain ATCC 700392 / 26695) (Campylobacterpylori), UniProt P69996). Description: Inhibition of Helicobacter pylori urease. It counts as protein-complex assay.
Assay [2] has as its system SK-OV-3. Put plainly: Downregulation of retinoblastoma expression in Homo sapiens (human) SKOV3 cells at 25 uM after 48 hr by Western blot analysis relative to control. In kind it is functional. Background: Immunoblotting shows a protein as a band on a membrane.
The test system of assay [3] is Stenotrophomonas maltophilia. Put plainly: Bactericidal activity against Stenotrophomonas maltophilia clinical isolate. It counts as functional.
Assay [4] has as its system SK-OV-3. Description: Downregulation of CDK4 expression in Homo sapiens (human) SKOV3 cells at 25 uM after 48 hr by Western blot analysis relative to control. It counts as functional.
Assay [5] concerns MDA-MB-468. Put plainly: Cytotoxicity against ER-negative Homo sapiens (human) MDA-MB-468 cells assessed as growth inhibition at 5 to 80 ug/ml after 24 to 72 hr by MTT assay. In kind it is functional. On the technique in general: Formazan colour is commonly taken as a measure of viable cells.
Assay [6] concerns Stenotrophomonas maltophilia. Put plainly: Antibacterial activity against Stenotrophomonas maltophilia clinical isolate by agar dilution method. In kind it is functional.
In assay [7] the test system is SK-OV-3. Put plainly: Downregulation of p21 expression in Homo sapiens (human) SKOV3 cells at 25 uM after 48 hr by Western blot analysis relative to control. In kind it is functional.
Assay [8] deals with Dermis. Put plainly: Antioxidant activity in Homo sapiens (human) dermis assessed as inhibition of UV-induced hydrogen peroxide production administered before UV induction at 48 hr by DHR assay. It counts as functional.
Assay [9] relates to Skin epidermis. Description: Antioxidant activity in Homo sapiens (human) epidermis cytosolic form assessed as inhibition of UV-induced nitric oxide production administered before UV induction at 48 hr by Griess assay. In kind it is functional. (In general: Nitrite, measured by Griess reagent, commonly stands in for NO production.)
Assay [10] has as its system Skin epidermis. Put plainly: Antioxidant activity in Homo sapiens (human) epidermis assessed as inhibition of UV-induced hydrogen peroxide production administered before UV induction at 48 hr by DHR assay. It counts as functional.
Assay [11] has as its system MDA-MB-468. Put plainly: Cytotoxicity against ER-negative Homo sapiens (human) MDA-MB-468 cells assessed as inhibition of cell viability at 5 to 80 ug/ml after 24 to 72 hr by MTT assay. In kind it is functional.
The subject of assay [12] is SK-OV-3. Description: Downregulation of cyclin D1 expression in Homo sapiens (human) SKOV3 cells at 25 uM after 48 hr by Western blot analysis relative to control. It counts as functional.
In assay [13] the test system is SK-OV-3. Put plainly: Downregulation of bax expression in Homo sapiens (human) SKOV3 cells at 25 uM after 48 hr by Western blot analysis relative to control. In kind it is functional.
Assay [14] concerns Epidermal microsome. Description: Antioxidant activity in Homo sapiens (human) epidermal microsomal fractions assessed as inhibition of UV-induced lipid peroxidation measured at 6 to 48 hr. It counts as functional. The following applies: Skin epidermis, dose or concentration not given here.
The test system of assay [15] is PC-12. Put plainly: Neuroprotective activity in rat PC12 cells assessed as increase in non amyloidogenic soluble form of amyloid precursor protein secretion at 0.1 to 10 uM after 2 hr by immunoblot analysis relative to control. It counts as functional.
Assay [16] concerns Stenotrophomonas maltophilia. Put plainly: Antibacterial activity against Stenotrophomonas maltophilia clinical isolate by broth macrodilution method. In kind it is functional.
Assay [17] has as its system Dermis. Put plainly: Antioxidant activity in Homo sapiens (human) dermis cytosolic form assessed as inhibition of UV-induced nitric oxide production administered before UV induction at 48 hr by Griess assay. It counts as functional.
Assay [18] has as its system SH-SY5Y. Description: Neuroprotective activity in Homo sapiens (human) SH-SY5Y cells assessed as increase in non amyloidogenic soluble form of amyloid precursor protein secretion at 0.1 to 10 uM after 2 hr by immunoblot analysis relative to control. In kind it is functional.
Assay [19] concerns SK-OV-3. Put plainly: Downregulation of Bcl-XL expression in Homo sapiens (human) SKOV3 cells at 25 uM after 48 hr by Western blot analysis relative to control. In kind it is functional.

≈ marks a conversion by molar mass, not a printed value.

Chain of Urease subunit alpha/Urease subunit beta (P69996 whole entry): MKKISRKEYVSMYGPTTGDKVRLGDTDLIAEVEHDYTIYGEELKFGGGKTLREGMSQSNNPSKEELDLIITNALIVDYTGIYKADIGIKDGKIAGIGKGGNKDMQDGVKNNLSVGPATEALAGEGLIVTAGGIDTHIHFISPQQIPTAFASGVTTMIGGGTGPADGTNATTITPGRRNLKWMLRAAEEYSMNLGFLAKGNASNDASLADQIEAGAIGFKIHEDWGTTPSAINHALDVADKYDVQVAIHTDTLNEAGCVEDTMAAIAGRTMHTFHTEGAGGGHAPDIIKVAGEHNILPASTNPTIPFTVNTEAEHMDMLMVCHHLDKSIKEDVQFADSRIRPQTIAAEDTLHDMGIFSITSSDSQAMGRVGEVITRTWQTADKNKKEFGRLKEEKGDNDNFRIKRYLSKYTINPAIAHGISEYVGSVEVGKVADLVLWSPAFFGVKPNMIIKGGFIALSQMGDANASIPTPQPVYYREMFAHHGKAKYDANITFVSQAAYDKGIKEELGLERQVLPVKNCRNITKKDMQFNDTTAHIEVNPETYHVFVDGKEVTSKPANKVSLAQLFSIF
Chain of Urease subunit alpha/Urease subunit beta (P14916 whole entry, further chain): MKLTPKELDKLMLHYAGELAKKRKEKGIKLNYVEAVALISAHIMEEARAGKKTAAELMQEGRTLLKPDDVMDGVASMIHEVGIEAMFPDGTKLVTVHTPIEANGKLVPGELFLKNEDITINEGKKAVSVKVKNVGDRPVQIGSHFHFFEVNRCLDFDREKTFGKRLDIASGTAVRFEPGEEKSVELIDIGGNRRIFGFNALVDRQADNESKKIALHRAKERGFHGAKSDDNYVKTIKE

On to `Oc1cc(O)c2c(c1)O[C@H](c1ccc(O)c(O)c1)[C@@H](O)C2` [CATECHIN], for which, in assay [1], the IC50 was 44.8 µM.
As for `O=C(O[C@@H]1Cc2c(O)cc(O)cc2O[C@@H]1c1cc(O)c(O)c(O)c1)c1cc(O)c(O)c(O)c1` [EPIGALOCATECHIN GALLATE], the “fold change (FC)” value is reported as >2 in assay [2]; >2 in [4]; >2 in assay [7]; >2 in [12]; >2 in assay [13]; 6 in assay [15]. Also, the results for the “fold change (FC)” value in [18] and in assay [19] were 6 and >2, respectively. Also, the MIC50 came out at 512 µg/mL (≈ 1120 µM) in assay [3], 256 µg/mL (≈ 558 µM) in [6] and 512 µg/mL (≈ 1120 µM) in [16]. The MIC90 in [3] amounted to 512 µg/mL (≈ 1120 µM); in assay [6], 256 µg/mL (≈ 558 µM); in assay [16] it was 512 µg/mL (≈ 1120 µM). Besides, in [5], the “growth inhibition (GI)” value was determined as 15%. In addition, the “inhibition (INH)” value was found to be 30% in assay [8]; 30% in assay [9]; 30% in assay [10]; 3% in assay [11]; 30% in assay [17]. In addition, the inhibition in assay [14] amounted to 41%.
